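Five compound concentrations were applied to cells in 96-well plates for 48 hours; endpoints were derived by simple linear interpolation of the resulting dose-response curve. Abbreviation: GI50, concentration required for 50% inhibition of growth. TGI marks complete inhibition of growth.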
Experiments:
Assay in all cases: NCI anticancer screen, dose series, 48 h
HCC-2998 colon = test system: HCC-2998 colon
786-0 renal = test system: 786-0 renal
NCI-H522 lung = test system: NCI-H522 lung
A549 NSCLC = test system: A549 NSCLC
NCI-H23 lung = test system: NCI-H23 lung
MALME-3M melanoma = test system: MALME-3M melanoma
SN12C renal = test system: SN12C renal
NCI-H460 lung = test system: NCI-H460 lung
OVCAR-5 ovarian = test system: OVCAR-5 ovarian
K-562 leukemia = test system: K-562 leukemia

Structure (SMILES) | GI50 (HCC-2998 colon) | TGI (HCC-2998 colon) | GI50 (786-0 renal) | TGI (786-0 renal) | GI50 (NCI-H522 lung) | TGI (NCI-H522 lung) | GI50 (A549 NSCLC) | TGI (A549 NSCLC) | GI50 (NCI-H23 lung) | TGI (NCI-H23 lung) | GI50 (MALME-3M melanoma) | TGI (MALME-3M melanoma) | GI50 (SN12C renal) | TGI (SN12C renal) | GI50 (NCI-H460 lung) | TGI (NCI-H460 lung) | GI50 (OVCAR-5 ovarian) | TGI (OVCAR-5 ovarian) | GI50 (K-562 leukemia) | TGI (K-562 leukemia)
CN(C)CC1CCCCCC(CN(C)C)C1=O (stereo not given) | 17.1 µM | 33.3 µM | 12.8 µM | 33.2 µM | 0.145 µM | 0.392 µM | 14.7 µM | 30.7 µM | 8.94 µM | 27 µM | 2.19 µM | 5.01 µM | 7.9 µM | 22.8 µM | 18 µM | 36.8 µM | 8.29 µM | 22 µM | 1.44 µM | 7.07 µM
CCNCCNc1cc(C2CCCCC2)c(C#N)c2nc3ccccc3n12 | 2.53 µM | 6.79 µM | 1.57 µM | 3.04 µM | 2.05 µM | 4.4 µM | 2.19 µM | 4.76 µM | 2.06 µM | 5.54 µM | 1.8 µM | 3.48 µM | 1.93 µM | 4.02 µM | 1.78 µM | 3.28 µM | 2.57 µM | 6.56 µM | 1.35 µM | 4.39 µM
CCCOC(=O)CCn1c(SC)nc2[nH]cc(-c3ccccc3)c2c1=O | 73.5 µM | > 100 µM | 2.71 µM | > 100 µM | 11 µM | 32.5 µM | 15.8 µM | 65.8 µM | 8.34 µM | 43 µM | 18.5 µM | 51.8 µM | 20.1 µM | > 100 µM | 13.4 µM | > 100 µM | > 100 µM | > 100 µM | 3.95 µM | 43.1 µM
COC(=O)C1=C(OC(=O)c2ccc(Cl)cc2)C(C(=O)OC)[C@@]2(O)[C@@H](C(=O)OC)C(c3ccccc3Cl)C[C@@H]1[C@@H]2C(=O)OC (stereo not given in full) | 14.3 µM | > 100 µM | 7.27 µM | > 100 µM | 2.77 µM | 7.92 µM | 3.16 µM | > 100 µM | 3.23 µM | > 100 µM | 4.85 µM | 31.7 µM | 4.22 µM | 31 µM | 4.18 µM | > 100 µM | 55.3 µM | > 100 µM | 6 µM | > 100 µM
COC(=O)C1=C(C(=O)OC)SC(=C(N=Nc2ccccc2)c2ccccc2)S1 |  | > 100 µM |  | > 100 µM |  | > 100 µM |  | > 100 µM |  | > 100 µM |  | > 100 µM |  | > 100 µM |  | > 100 µM |  | > 100 µM |  | > 100 µM
O=C(CCCSc1nc(-c2ccccc2)cc(-c2ccc(Cl)cc2)n1)NO | 3.03 µM | 13.2 µM | 1.47 µM | 13.3 µM | 1.96 µM | 10.4 µM | 2.31 µM | 12.4 µM | 2.44 µM | 10.6 µM | 2.7 µM | 12.1 µM | 1.18 µM | 7.72 µM | 0.558 µM | 7.29 µM | 2.12 µM | 8.48 µM | 1.51 µM | 26.1 µM

Reference: PubChem BioAssay (NCI)
